In ChEMBL document CHEMBL1135326, “Structure-activity relationship studies of ethyl 2-[(3-methyl-2,5-dioxo(3-pyrrolinyl))amino]-4-(trifluoromethyl)pyrimidine-5-carboxylate: an inhibitor of AP-1 and NF-kappaB mediated gene expression” (Bioorg Med Chem Lett, 2002) one finds IC50 data, which are given here for 55 compounds.

The structures appear in SMILES notation.

In one experiment the test system is Jurkat. As to the kind of experiment: Inhibition of AP-1 and NF-kB-mediated transcriptional activation in Jurkat cells. The class given is functional, cell-based, Homo sapiens. Particulars: Homo sapiens, Jurkat.
The term IC50 denotes the concentration that inhibits the measured activity by half. A higher IC50 goes with lower potency. Take `CCOC(=O)c1cnc(NN2C(=O)C=C(C)C2=O)nc1-c1cccs1`: the IC50 was determined as 140 nM.

On to `CCOC(=O)c1cnc(N(C)N2C(=O)C=C(C)C2=O)nc1-c1nccs1`, for which the IC50 is 1700 nM.

`CCCC(=O)c1cnc(NN2C(=O)C=C(C)C2=O)nc1CC` came in with an IC50 of 450 nM.

`CCc1nc(NN2C(=O)C=C(C)C2=O)ncc1-c1nc(C)co1` displayed an IC50 of 830 nM.

Compound `CCc1nc(NN2C(=O)C=C(C)C2=O)ncc1-c1nnc(C)o1` displayed an IC50 of 10000 nM.

Consider `CCOC(=O)c1cnc(NN2C(=O)C=C(C)C2=O)nc1-c1ccsc1`, for which the IC50 came out at 200 nM.

Compound `CC1=CC(=O)N(Nc2ncc(C(=O)N(C)C)c(C(F)(F)F)n2)C1=O` came in with an IC50 of 30000 nM.

In the case of `CCOC(=O)c1cnc(N(C(=O)NC)N2C(=O)C=C(C)C2=O)nc1C(F)(F)F`, the IC50 is 590 nM.

With `CCc1nc(NN2C(=O)C=C(C)C2=O)ncc1-c1nnn(C)n1`, the IC50 stood at 10000 nM.

`CCOC(=O)c1cnc(N(C)N2C(=O)C=C(C)C2=O)nc1-c1ccc(C)s1` returned an IC50 of 350 nM.

As to `CCOC(=O)c1cnc(N)nc1C(F)(F)F`, the IC50 was found to be 30000 nM.

In the case of `CC1=CC(=O)N(Nc2ncc(C(=O)c3ccccc3)c(C(F)(F)F)n2)C1=O`, the IC50 came to 98 nM.

The compound `CC(=O)c1cnc(NN2C(=O)C=C(C)C2=O)nc1C` gave a concentration for half-maximal inhibition (IC50) of 7700 nM.

The compound `CCOC(=O)c1cnc(NN2C(=O)C=C(C)C2=O)nc1C` came in with an IC50 of 1900 nM.

The compound `CCOC(=O)c1cnc(NN2C(=O)C=C(C)C2=O)nc1-c1ccc(Cl)s1` yielded an IC50 of 520 nM.

`CCOC(=O)c1cnc(NN2C(=O)C=C(c3ccccc3)C2=O)nc1C(F)(F)F` showed a 50% inhibitory concentration (IC50) of 3700 nM.

Regarding `CC1=CC(=O)N(Nc2ncc(C(=O)O)c(C(F)(F)F)n2)C1=O`, the IC50 stood at 30000 nM.

The compound `CCOC(=O)c1cnc(NN2C(=O)C=C(C)C2=O)nc1-c1cc2ccccc2s1` gave an IC50 of 800 nM.

In turn, `CC1=CC(=O)N(Nc2ncc(-c3nc(C)co3)c(-c3cccs3)n2)C1=O` displayed an IC50 of 760 nM.

For the compound `CCOC(=O)c1cnc(N(Cc2ccccc2)N2C(=O)C=C(C)C2=O)nc1C(F)(F)F`, the midpoint of inhibition, the IC50, lay at 450 nM.

`CCc1nc(N(C)N2C(=O)C=C(C)C2=O)ncc1C(=O)c1ccccc1` yielded an IC50 of 410 nM.

`CCOC(=O)c1cnc(N(C)N2C(=O)C=C(C)C2=O)nc1C(F)(F)C(F)(F)F` yielded an IC50 of 350 nM.

In the case of `CCOC(=O)c1cnc(N(C(=O)c2ccccc2)N2C(=O)C=C(C)C2=O)nc1C(F)(F)F`, half-maximal inhibition (IC50) required 830 nM.

For `CCOC(=O)c1cnc(NN2C(=O)C=C(C)C2=O)nc1`, the IC50 was determined as 13000 nM.

Compound `CCOC(=O)c1cnc(NN2C(=O)C=C(C)C2=O)nc1C(F)(F)C(F)(F)F` showed an IC50 of 200 nM.

Turning to `CCc1nc(NN2C(=O)C=C(C)C2=O)ncc1C(=O)c1ccccc1`, the IC50 came to 650 nM.

Turning to `CCOC(=O)c1cnc(NN2C(=O)C=C(C)C2=O)nc1CC`, half-maximal inhibition (IC50) was put at 400 nM.

`CC1=CC(=O)N(Nc2ncc(C(=O)OC(C)(C)C)c(-c3cccs3)n2)C1=O` yielded a half-maximal inhibitory concentration (IC50) of 50 nM.

As for `CCc1nc(NN2C(=O)C=C(C)C2=O)ncc1-c1ncc(-c2ccccc2)o1`, the IC50 is 2800 nM.

`CCOC(=O)c1cnc(NN2C(=O)C=C(C)C2=O)nc1-c1ccccc1`: the IC50 came to 1200 nM.

For `CCOC(=O)c1cnc(N(C(=O)OCC)N2C(=O)C=C(C)C2=O)nc1C(F)(F)F`, 380 nM corresponded to half-maximal inhibition (IC50).

In turn, `CCc1nc(NN2C(=O)C=C(C)C2=O)ncc1C(=O)OC1CC1` showed an IC50 of 120 nM.

As for `CCc1nc(NN2C(=O)C=C(C)C2=O)ncc1-c1cc(C)no1`, inhibition was half-maximal at 10000 nM (IC50).

In the case of `CCOC(=O)c1cnc(N(C)N2C(=O)C=C(C)C2=O)nc1CC`, the IC50 came to 35 nM.

In turn, `CCOC(=O)c1cnc(N(C)N2C(=O)C=C(C)C2=O)nc1-c1ccsc1` showed an IC50 of 120 nM.

`CCc1nc(NN2C(=O)C=C(C)C2=O)ncc1CO`: 4900 nM corresponded to half-maximal inhibition (IC50).

For `CCc1nc(N(C)N2C(=O)C=C(C)C2=O)ncc1COC`, 630 nM corresponded to half-maximal inhibition (IC50).

Take `CCOC(=O)c1cnc(NN2C(=O)C=C(C)C2=O)nc1-c1ccc(C)s1`: the IC50 turned out to be 45 nM.

`CC1=CC(=O)N(Nc2ncc(C(N)=O)c(C(F)(F)F)n2)C1=O` had an IC50 of 30000 nM.

The compound `CCOC(=O)c1cnc(NN2C(=O)C=C(C)C2=O)nc1COC` displayed an IC50 of 6000 nM.

On to `CCOC(=O)c1cnc(NN2C(=O)C=C(C)C2=O)nc1C1CC1`, for which 1500 nM corresponded to half-maximal inhibition (IC50).

Take `CC1=CC(=O)N(Nc2ncc(C(=O)OC(C)(C)C)c(C(F)(F)F)n2)C1=O`: the IC50 amounted to 210 nM.

In the case of `CCOC(=O)c1cnc(N(C)N2C(=O)C=C(C)C2=O)nc1-c1cc2ccccc2s1`, the IC50 was found to be 130 nM.

In the case of `CCOC(=O)c1cnc(NN2C(=O)CCC2=O)nc1C(F)(F)F`, half-maximal inhibition (IC50) was put at 1600 nM.

The compound `CCOC(=O)c1cnc(N(C)N2C(=O)C=C(C)C2=O)nc1C(F)(F)F` returned an IC50 of 300 nM.

In the case of `CCOC(=O)c1cnc(N(C(C)=O)N2C(=O)C=C(C)C2=O)nc1C(F)(F)F`, the IC50 came out at 410 nM.

The compound `CCOC(=O)c1cnc(NN2C(=O)C=C(C)C2=O)nc1Cc1ccccc1` showed an IC50 of 3800 nM.

As to `CCOC(=O)c1cnc(NN2C(=O)C=C(C)C2=O)nc1C(F)(F)F`, inhibition was half-maximal at 2000 nM (IC50).

Compound `CCOC(=O)c1cnc(NN2C(=O)C=C(C)C2=O)nc1-c1nccs1` returned an IC50 of 2200 nM.

Compound `CCOC(=O)c1cnc(NN2C(=O)C=C(C)C2=O)nc1-c1ccco1` displayed an IC50 of 1000 nM.

Take `CCc1nc(NN2C(=O)C=C(C)C2=O)ncc1C#N`: the IC50 stood at 1100 nM.

Take `CCOC(=O)c1cnc(N(C)N2C(=O)C=C(C)C2=O)nc1-c1cccs1`: the IC50 was determined as 94 nM.

Compound `CCCc1nc(N(C(C)=O)N2C(=O)C=C(C)C2=O)ncc1C(=O)OCC` had an IC50 of 430 nM.

`CCOC(=O)c1cnc(NN2C(=O)C(C)=C(C)C2=O)nc1C(F)(F)F` returned an IC50 of 3900 nM.

For the compound `CC(=O)c1cnc(NN2C(=O)C=C(C)C2=O)nc1C(F)(F)F`, the IC50 is 4400 nM.

Staying with this experiment, now noted: jurkat.
Compound `CCOC(=O)c1cnc(N(C)N2C(=O)C=C(C)C2=O)nc1C(F)(F)C(F)(F)F` returned an IC50 of 450 nM.
